Columns and labels:
IMAB362 [1] = assay: Peptide ELISA, biotinylated peptides on streptavidin plates; type: binding
Experimental: For the detection of IMAB362, the CLDN18.2 mimicking peptides were immobilized on streptavidin plates (Nunc) in a concentration of 0.75 μg/ml in PBS buffer for 1 hour at 37° C. Subsequently, the plate was washed three times with washing buffer (0.01% Tween-20 in PBS buffer) before it was blocked with 3% BSA in PBS overnight at 4° C. To detect IMAB362, the blocked plate was washed again three times with washing buffer followed by the addition of IMAB362 and incubation for 30 min at 37° C. After another washing step, it was incubated with an alkaline phosphatase conjugated anti-human Fc antibody (Jackson Immuno Research) for additional 30 min at 37° C. Finally, the plate was washed again before being incubated with 1.5 mg/ml of the substrate PNPP (para-nitrophenyl phosphate) in appropriate substrate buffer (1 M Diethanolamine, 0.05 mM MgCl2, 0.01% sodium azide, pH 9.8) for 30 min at RT in the dark. 3 M KOH was used to stop the enzymatic reaction. Absorbance was measured with a microplate reader (Infinite M200, Tecan). For dual wavelength analysis, 405 nm was chosen as measurement wavelength and 492 nm as reference wavelength. Absorbance values were calculated by subtraction of the measured values for the reference wavelength and for the measurement wavelength. Calculation of apparent KD values was done by fitting the data with Sigma Plot 10 using a two-site saturation binding model. […]

IMAB362 [2] = assay: Peptide microarray incubation with IMAB362; type: binding; conditions: IMAB362 1 μg/ml; percentage of fluorescence assay signal of the hit peptide
Experimental: Peptides were synthesized and printed on peptidemicroarray slides essentially as described previously [Funkner, A. et al., J. Mol. Biol. 2013, 425, 1340-1362]. In brief, the peptides were synthesized using SPOT synthesis [Wenschuh, H. et al., Biopolymers 2000, 55, 188-206] cleaved from the solid support and cyclized (50% DMSO, PBS buffer pH 7-8, RT, 16 hours). Subsequently, all peptides were chemoselectively immobilized on functionalized glass slides as described earlier [Funkner, A. et al., J. Mol. Biol. 2013, 425, 1340-1362]. Each peptide was deposited on the microarray in triplicates.
The microarrays were incubated with 1.0 or 0.1 μg/ml IMAB362 in an HS 4800 microarray processing station (Tecan) for two hours at 30° C., followed by incubation with 1.0 μg/ml fluorescently labelled secondary antibody (Alexa647 anti-human Fc antibody; Jackson Immuno Research). Washing steps were performed prior every incubation step with 0.1% Tween-20 in 1×TBS. After the final incubation step the microarrays were washed (0.05% Tween-20 in 0.1×SSC) and dried in a stream of nitrogen. Each microarray was scanned using a GenePix Autoloader 4200AL (Molecular Devices, Pixel size: 10 μm). Signal intensities were evaluated using GenePix Pro 7.0 analysis software (Molecular Devices). For each peptide, the mean of the three triplicates was calculated.
Peptide microarrays were used for structure-activity-relationship (SAR) analysis and optimization of peptide binding affinity to IMAB362. For assay setup three variants of each cyclic hit peptide (sequences 1, 2 and 3, Table 1) were prepared differing in a) the immobilization site, b) the linker nature and c) the degree of conformational restriction (cyclic vs. linear). All peptides were chemically synthesized in a stepwise fashion from the C- to the N-terminus by the high-throughput SPOT synthesis approach [Wenschuh, H. et al., Biopolymers 2000, 55, 188-206] applying a cellulose membrane as solid support. After cleavage and isolation, the peptides were cyclised through disulfide formation between two internal Cys residues and immobilized to the microarray. Covalent attachment to the microarray was performed through a reactive moiety on either the N- or C-terminus of the peptides allowing chemoselective and directed immobilization through both ends of the peptides. Subsequently, peptide loaded microarrays were incubated with 1.0 or 0.1 μg/ml IMAB362 followed by incubation with 1 μg/ml fluorescently labelled secondary antibody, scanning and data evaluation.
Target sequence in this assay (as listed by the source): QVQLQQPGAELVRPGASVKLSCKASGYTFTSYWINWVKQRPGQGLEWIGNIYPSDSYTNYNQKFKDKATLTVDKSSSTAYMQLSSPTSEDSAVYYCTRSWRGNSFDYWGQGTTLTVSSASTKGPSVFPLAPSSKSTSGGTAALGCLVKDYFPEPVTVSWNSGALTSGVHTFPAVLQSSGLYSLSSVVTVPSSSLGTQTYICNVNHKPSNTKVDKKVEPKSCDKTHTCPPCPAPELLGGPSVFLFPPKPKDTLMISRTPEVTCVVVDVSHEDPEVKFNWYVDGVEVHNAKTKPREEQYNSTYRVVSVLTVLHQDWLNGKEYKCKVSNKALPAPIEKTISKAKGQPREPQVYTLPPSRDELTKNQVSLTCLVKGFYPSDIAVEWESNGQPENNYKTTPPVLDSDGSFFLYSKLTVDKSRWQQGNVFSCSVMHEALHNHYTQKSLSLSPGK
Target sequence in this assay (as listed by the source): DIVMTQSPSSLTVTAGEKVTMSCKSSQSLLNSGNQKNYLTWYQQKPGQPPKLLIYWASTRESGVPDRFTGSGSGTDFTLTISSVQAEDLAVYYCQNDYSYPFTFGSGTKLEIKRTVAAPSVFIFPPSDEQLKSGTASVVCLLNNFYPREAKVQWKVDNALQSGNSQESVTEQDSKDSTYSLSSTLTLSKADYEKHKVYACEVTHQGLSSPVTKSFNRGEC

[3] = In vivo pharmacokinetic analysis, serum measured by peptide ELISA with 2c mimotope peptide; conditions: approximately 50 mg/kg intravenously, Balb/cJ mice
Experimental: After 8, 24, 48, 72, 144, 168 and 192 hrs, blood samples were taken from two mice of each group for serum preparation. The serum samples were to be measured in the linear range of the assay (approximately 0.3-300 ng/ml). […] An IMAB362 standard row in presence of murine Balb/cJ control serum was assayed in parallel (0-25 ng/ml). The standard raw data were fitted by linear regression to calculate the antibody concentration from the mouse samples at the respective timepoint. Before the pharmakokinetic analysis, a permission for the animal experiment was obtained from the relevant local authority.

[4] = system: advanced gastro-esophageal cancer; conditions: multiply pre-treated late-stage patients, single agent; cited from earlier work

For CC(C)[C@@H]1NC(=O)CNC(=O)[C@@H]2CCCN2C(=O)[C@H](Cc2ccc(O)cc2)NC(=O)CNC(=O)[C@H](Cc2ccc(O)cc2)NC(=O)[C@H](Cc2c[nH]cn2)NC(=O)[C@@H](NC(=O)[C@H](C)NC(=O)CCC(=O)NCCCOCCOCCOCCCNC(=O)CCCC[C@@H]2SC[C@@H]3NC(=O)N[C@@H]32)CSSC[C@@H](C(=O)NCC(=O)O)NC1=O [Peptide 2c], the “binding curves of IMAB362 to peptide when antibody diluted with human serum” value (IMAB362 [1]; up to 20% human serum, background signal slightly increased at high serum concentrations) was “looked similar” and the “binding of IMAB362 to peptide in the presence of mouse serum” value (IMAB362 [1]; up to 20% mouse serum) was “almost not affected”.

For “ACHLGYPGRCG [Cyclopeptide-GGS-K(X) Seq. 3]”, the “% Affinity compared to hit peptide” value (IMAB362 [2]) was 100%.

In the case of “ACHLGYPGRCG [X-Ttds-Linearpeptide Seq. 3]”, the “% Affinity compared to hit peptide” value (IMAB362 [2]) is reported as 0.1%.

For “ACHLNYPGYCG [Cyclopeptide-GGS-K(X) Seq. 1]”, the “% Affinity compared to hit peptide” value (IMAB362 [2]) was 100%.

In the case of “ACHLNYPGYCG [X-Ttds-Linearpeptide Seq. 1]”, the “% Affinity compared to hit peptide” value (IMAB362 [2]) is reported as 0%.

With “ACHYSYPGVCG [Cyclopeptide-GGS-K(X) Seq. 2]” the “% Affinity compared to hit peptide” value (IMAB362 [2]) was 100%.

In the case of “ACHYSYPGVCG [X-Ttds-Linearpeptide Seq. 2]”, the “% Affinity compared to hit peptide” value (IMAB362 [2]) is reported as 0%.

For “IMAB362: highly tumor-specific monoclonal IgG1 antibody directed against Claudin 18 isoform 2 (CLDN18.2)”, the “IMAB362 concentration in mice” value ([3]; after 8 hours) is given as “approximately 800 μg/ml”, the “IMAB362 concentration in mice” value ([3]; at the end of the study (192 hrs)) is given as “approximately 350 μg/ml” and the antitumoral activity [4] is given as “antitumoral activity”. For the same compound, the tolerability [4] was “have shown tolerability”.
